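Each compound was tested at five concentrations against cells in 96-well plates for 48 hours. GI50 = concentration required for 50% inhibition of growth. TGI denotes the concentration required for complete inhibition of growth.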
What was measured:
Assay in all cases: NCI anticancer screen, dose series, 48 h
KM12 colon = tested on: KM12 colon
LOX IMVI melanoma = tested on: LOX IMVI melanoma
A549 NSCLC = tested on: A549 NSCLC
OVCAR-8 ovarian = tested on: OVCAR-8 ovarian
UO-31 renal = tested on: UO-31 renal
SK-MEL-28 melanoma = tested on: SK-MEL-28 melanoma
NCI-H460 lung = tested on: NCI-H460 lung
OVCAR-4 ovarian = tested on: OVCAR-4 ovarian
EKVX NSCLC = tested on: EKVX NSCLC
MCF7 breast = tested on: MCF7 breast
CAKI-1 renal = tested on: CAKI-1 renal
SK-MEL-5 melanoma = tested on: SK-MEL-5 melanoma
MDA-MB-435 = tested on: MDA-MB-435
PC-3 prostate = tested on: PC-3 prostate
SF-295 CNS = tested on: SF-295 CNS
HS 578T breast = tested on: HS 578T breast
UACC-257 melanoma = tested on: UACC-257 melanoma
MDA-MB-231 breast = tested on: MDA-MB-231 breast
SF-539 CNS = tested on: SF-539 CNS
SN12C renal = tested on: SN12C renal
SW-620 colon = tested on: SW-620 colon
RPMI-8226 leukemia = tested on: RPMI-8226 leukemia
HCT-15 colon = tested on: HCT-15 colon
OVCAR-5 ovarian = tested on: OVCAR-5 ovarian
U251 CNS = tested on: U251 CNS
T-47D breast = tested on: T-47D breast
SK-OV-3 ovarian = tested on: SK-OV-3 ovarian
HOP-92 NSCLC = tested on: HOP-92 NSCLC
786-0 renal = tested on: 786-0 renal
IGROV1 ovarian = tested on: IGROV1 ovarian
SNB-75 CNS = tested on: SNB-75 CNS
MOLT-4 leukemia = tested on: MOLT-4 leukemia
UACC-62 melanoma = tested on: UACC-62 melanoma
COLO 205 colon = tested on: COLO 205 colon
DU-145 prostate = tested on: DU-145 prostate
SK-MEL-2 melanoma = tested on: SK-MEL-2 melanoma
SF-268 CNS = tested on: SF-268 CNS
NCI-H522 lung = tested on: NCI-H522 lung
NCI/ADR-RES ovarian = tested on: NCI/ADR-RES ovarian
BT-549 breast = tested on: BT-549 breast
SNB-19 CNS = tested on: SNB-19 CNS
HT29 colon = tested on: HT29 colon
RXF 393 renal = tested on: RXF 393 renal
CCRF-CEM leukemia = tested on: CCRF-CEM leukemia
OVCAR-3 ovarian = tested on: OVCAR-3 ovarian
M14 melanoma = tested on: M14 melanoma

O=C(NC(=S)NS(=O)(=O)c1ccc(N2N=C3c4ccccc4CC3C2c2cccs2)cc1)c1ccccc1 (configuration not stated)
GI50 (KM12 colon): 28.2 µM
TGI (KM12 colon): 91.8 µM
GI50 (LOX IMVI melanoma): 15.2 µM
TGI (LOX IMVI melanoma): 31.7 µM
GI50 (A549 NSCLC): 20.3 µM
TGI (A549 NSCLC): > 100 µM
GI50 (OVCAR-8 ovarian): 20.3 µM
TGI (OVCAR-8 ovarian): > 100 µM
GI50 (UO-31 renal): 41.1 µM
TGI (UO-31 renal): > 100 µM
GI50 (SK-MEL-28 melanoma): 84 µM
TGI (SK-MEL-28 melanoma): > 100 µM
GI50 (NCI-H460 lung): > 100 µM
TGI (NCI-H460 lung): > 100 µM
GI50 (OVCAR-4 ovarian): 87.6 µM
TGI (OVCAR-4 ovarian): > 100 µM
GI50 (EKVX NSCLC): 19.6 µM
TGI (EKVX NSCLC): > 100 µM
GI50 (MCF7 breast): > 100 µM
TGI (MCF7 breast): > 100 µM
GI50 (CAKI-1 renal): 26.1 µM
TGI (CAKI-1 renal): 77.4 µM
GI50 (SK-MEL-5 melanoma): 16.9 µM
TGI (SK-MEL-5 melanoma): 46.5 µM
GI50 (MDA-MB-435): 21.7 µM
TGI (MDA-MB-435): 60.6 µM
GI50 (PC-3 prostate): 29.7 µM
TGI (PC-3 prostate): > 100 µM
GI50 (SF-295 CNS): 25.4 µM
TGI (SF-295 CNS): 78.6 µM
GI50 (HS 578T breast): 16.1 µM
TGI (HS 578T breast): 68 µM
GI50 (UACC-257 melanoma): 42.8 µM
TGI (UACC-257 melanoma): > 100 µM
GI50 (MDA-MB-231 breast): 22.5 µM
TGI (MDA-MB-231 breast): 90.1 µM
GI50 (SF-539 CNS): 27.9 µM
TGI (SF-539 CNS): 84.6 µM
GI50 (SN12C renal): 26 µM
TGI (SN12C renal): 96.9 µM
GI50 (SW-620 colon): 34.8 µM
TGI (SW-620 colon): > 100 µM
GI50 (RPMI-8226 leukemia): 29.7 µM
TGI (RPMI-8226 leukemia): > 100 µM
GI50 (HCT-15 colon): 30.2 µM
TGI (HCT-15 colon): > 100 µM
GI50 (OVCAR-5 ovarian): 18.7 µM
TGI (OVCAR-5 ovarian): 71.7 µM
GI50 (U251 CNS): 20.1 µM
TGI (U251 CNS): 82.3 µM
GI50 (T-47D breast): 69.6 µM
TGI (T-47D breast): > 100 µM
GI50 (SK-OV-3 ovarian): 90.8 µM
TGI (SK-OV-3 ovarian): > 100 µM
GI50 (HOP-92 NSCLC): 53.1 µM
TGI (HOP-92 NSCLC): > 100 µM
GI50 (786-0 renal): 27.9 µM
TGI (786-0 renal): > 100 µM
GI50 (IGROV1 ovarian): 3.14 µM
TGI (IGROV1 ovarian): > 100 µM
GI50 (SNB-75 CNS): > 100 µM
TGI (SNB-75 CNS): > 100 µM
GI50 (MOLT-4 leukemia): 26.2 µM
TGI (MOLT-4 leukemia): 69.9 µM
GI50 (UACC-62 melanoma): 14.6 µM
TGI (UACC-62 melanoma): 36.8 µM
GI50 (COLO 205 colon): 38.4 µM
TGI (COLO 205 colon): > 100 µM
GI50 (DU-145 prostate): 28.3 µM
TGI (DU-145 prostate): > 100 µM
GI50 (SK-MEL-2 melanoma): 44 µM
TGI (SK-MEL-2 melanoma): > 100 µM
GI50 (SF-268 CNS): > 100 µM
TGI (SF-268 CNS): > 100 µM
GI50 (NCI-H522 lung): 20.5 µM
TGI (NCI-H522 lung): 80.9 µM
GI50 (NCI/ADR-RES ovarian): 18.8 µM
TGI (NCI/ADR-RES ovarian): 67.1 µM
GI50 (BT-549 breast): 21.6 µM
TGI (BT-549 breast): > 100 µM
GI50 (SNB-19 CNS): 46.3 µM
TGI (SNB-19 CNS): > 100 µM
GI50 (HT29 colon): 46 µM
TGI (HT29 colon): > 100 µM
GI50 (RXF 393 renal): 54 µM
TGI (RXF 393 renal): > 100 µM
GI50 (CCRF-CEM leukemia): 27.9 µM
TGI (CCRF-CEM leukemia): > 100 µM
GI50 (OVCAR-3 ovarian): 30.6 µM
TGI (OVCAR-3 ovarian): > 100 µM
GI50 (M14 melanoma): 21.5 µM
TGI (M14 melanoma): 58.9 µM
